Experiments:
[1] = molecular target: monoclonal antibody from hybridoma 1C1 H2 A5; test: Competitive ELISA of platinum compounds for binding to 1C1 H2 A5 monoclonal antibody; parameters: species or system mouse; conditions: for concentration of agent which decreased the antibody binding to 50% of control: MOAB 1C1 H2 A5, immobilized DACH Pt complex in microtiter wells
Method: A DACH Pt complex was immobilized on the surface of microtiter wells.
A DACH Pt complex was immobilized on the surface of microtiter wells, to which MOAB binding was measured.
A competitive ELISA assay using monoclonal antibody specific for platinum (II) complex was performed. Monoclonal antibody from hybridoma 1C1 H2 A5 was added to microtiter wells having an immobilized DACH Pt complex. The MOAB was added either with no free platinum complex (control) or with increasing amounts of free MIDP platinum complex. Additionally, three compounds (designated A, B and C), whose identities were best unknown at that time, were added in parallel to the MIDP competition study. As shown in FIG. 10 the competition of compound A was quite similar to that of MIDP. Compound B (FIG. 11) was less similar to MIDP and compound C (FIG. 12) was least like MIDP although still being inhibitory of MOAB binding. The concentration of each agent which decreased the antibody binding to 50% of control was: MIDP=lug; A=2ug; B=4ug and C=200ug.

[2] = test system: human breast carcinoma cells (MCF-7); test: MTT assay; cytotoxicity on MCF-7 breast carcinoma cells; format: cell-based; conditions: MCF-7, 72 hrs
Method: Eight thousand MCF-7 cells were seeded per well and an MTT dye viability test performed.
In order to determine whether the MIDP/MOAB complex retained antiproliferative activity against cells in culture, the antibody (2 mg) was incubated with 200 ug of MIDP platinum complex for 24 hrs. The MOAB/MIDP solution was then dialyzed for 4 hrs at 4° C. against phosphate-buffered saline (PBS). The dialysate was then analyzed for total platinum by atomic absorption spectrometry. The monoclonal antibody/MIDP complex was then added to human breast carcinoma cells (MCF-7) in concentrations between 0.01 and 10 ug Pt/ml. As a control on the same plates, MIDP was also added at equal platinum concentrations. At 72 hrs after treatment, the wells were assessed for viable cells by MTT assay.
**Cell survival was determined using the tetrazolium dyebinding method
(MTT) which dye reacts only with living cells.

[3] = test system: cells resistant to cisplatin; conditions: cited from earlier work
[4] = test system: L1210 leukemia; conditions: mice, multi-dose administration; cited from earlier work
[5] = in vivo; cited from earlier work
[6] = test system: B16 melanoma; conditions: mice, multi-dose administration; cited from earlier work

| SMILES | concentration of agent which decreased the antibody binding to 50% of control [1] [µg] | binding to the antibody relative to compound C ([1]; relative to compound C) | amount needed to compete at a level with MIDP ([1]; relative to MIDP) | Percent of Control Cell survival ([2]; MIDP concentration 0.019 ug/ml) [%] | Percent of Control Cell survival ([2]; MIDP concentration 0.039 ug/ml) [%] | Percent of Control Cell survival ([2]; MIDP concentration 0.078 ug/ml) [%] | Percent of Control Cell survival ([2]; MIDP concentration 0.156 ug/ml) [%] | Percent of Control Cell survival ([2]; MIDP concentration 0.312 ug/ml) [%] | Percent of Control Cell survival ([2]; MIDP concentration 0.625 ug/ml) [%] | Percent of Control Cell survival ([2]; MIDP concentration 1.25 ug/ml) [%] | Percent of Control Cell survival ([2]; MIDP concentration 2.5 ug/ml) [%] | Percent of Control Cell survival ([2]; MIDP concentration 5 ug/ml) [%] | Percent of Control Cell survival ([2]; MIDP concentration 10 ug/ml) [%] | concentration required for 50% inhibition of cell growth ([2]; MTT, platinum concentration) [µg/mL] | cross-resistance [3] | treatment of L1210 leukemia [4] | renal toxicity [5] | treatment of B16 melanoma [6] |
| --- | --- | --- | --- | --- | --- | --- | --- | --- | --- | --- | --- | --- | --- | --- | --- | --- | --- | --- |
| NC1CCCCC1N.O=C([O-])C1(C(=O)[O-])CCC1.[Pt+2] [Compound B, DACH Pt(II) 1,1-dicarboxylatocyclobutane] | 4 | about 50 fold | – | – | – | – | – | – | – | – | – | – | – | – | – | – | – | – |
| N.N.O=C([O-])C1(C(=O)[O-])CCC1.[Pt+2] [Compound C, diamine Pt(II) 1,1-dicarboxylatocyclobutane] | 200 | – | 100-200 times | – | – | – | – | – | – | – | – | – | – | – | – | – | – | – |
| CN(CC(=O)[O-])CC(=O)[O-].NC1CCCCC1N.[Pt+2] [MIDP, methylimino-diacetato-1,2-diaminocyclohexane platinum (II)] | 2 | – | – | 86.9 | 84.3 | 72.4 | 45.5 | 32.3 | 17.0 | 18.5 | 15.2 | 10.8 | 8.3 | 0.15 | not to display cross-resistance | curative | does not induce renal toxicity | curative |

From patent US5053226A, “Monoclonal antibodies binding platinum complexes” (Board of Regents, The University of Texas System, priority 1987, dated 1991)
